Measured values published in patent US20100249068A1, “S[…] NUCLEOTIDE ANALOGS” (Alios BioPharma, Inc., priority 2009, published 2010).

These compounds were tested on stably HCV RNA-replicating cell line, AVA5 (genotype 1b, subgenomic replicon) (assay: HCV replicon assay (intracellular HCV RNA levels by blot hybridization, normalized to β-actin RNA)). Conditions: Hepatitis C virus; AVA5 cells, HCV genotype 1b subgenomic replicon; compounds added daily for three days; HCV RNA assessed 72 hours after treatment; read-out: Activity (EC50).
Format: cell-based
Method: Antiviral activity of test compounds was assessed (Okuse, et al., Antivir. Res. 2005 65:23) in the stably HCV RNA-replicating cell line, AVA5 (genotype 1b, subgenomic replicon, Blight, et al., Sci. 2000 290:1972). Compounds were added to dividing cultures daily for three days. […] Intracellular HCV RNA levels and cytotoxicity were assessed 72 hours after treatment.
Quadruplicate cultures for HCV RNA levels and cytoxicity (on 96-well plates) were used. A total of 12 untreated control cultures, and triplicate cultures treated with α-interferon (concentrations of: 10 IU/mL, 3.3 IU/mL, 1.1 IU/mL and 0.37 IU/mL) and 2′C-Me-C (concentrations of: 30 μM, 10 μM, 3.3 μM and 1.1 μM) served as assay controls.
Intracellular HCV RNA levels were measured using a conventional blot hybridization method, in which HCV RNA levels are normalized to the levels of β-actin RNA in each individual culture (Okuse, et al., Antivir. Res. 2005 65:23). Cytotoxicity was measured using an established neutral red dye uptake assay (Korba and Gerin, Antivir. Res. 1992 19:55; Okuse, et al., Antivir. Res. 2005 65:23). HCV RNA levels in the treated cultures are expressed as a percentage of the mean levels of RNA detected in untreated cultures. The absorbance of the internalized dye at […] (A510) was used for quantitative analysis.
Compounds were dissolved in 100% tissue culture grade DMSO (Sigma, Inc.) at 10 mM. Aliquots of test compounds sufficient for one daily treatment were made in individual tubes and all material was stored at −20° C. For the test, the compounds were suspended into culture medium at room temperature, and immediately added to the cell cultures. Compounds were analyzed separately in two groups with separate assay controls. The concentrations of the test compounds were run at concentrations of 10 μM, 3.3 μM, 1.1 μM and 0.37 μM. CC50, EC50 and EC90 were determined using the concentration response curve.
Work on `C[C@@H](O)[C@H]1O[C@@H](n2ccc3c(N)ncnc32)[C@H](O)[C@@H]1O` yielded an EC50 of under 30 µM.
In the case of `CC(O)[C@H]1O[C@@H](n2ccc(N)nc2=O)[C@@H](F)[C@@H]1O` (stereo partly drawn), the EC50 is reported as under 30 µM.
Work on `C[C@@H](O)[C@H]1O[C@@H](n2ccc(N)nc2=O)C(F)(F)[C@@H]1O` yielded an EC50 of under 5 µM.
Compound `C[C@@H](O)[C@H]1O[C@@H](n2cnc3c(N)ncnc32)[C@](C)(O)[C@@H]1O` has an EC50 of under 30 µM.
With `C[C@H](O)[C@H]1O[C@@H](n2ccc(N)nc2=O)[C@@H](O)[C@@H]1O` the EC50 was under 200 µM.
`CC(O)[C@H]1O[C@@H](n2cnc3c(=O)[nH]c(N)nc32)[C@H](O)[C@@H]1O` (stereo partly drawn) showed an EC50 of under 200 µM.
`CC(OC(=O)c1ccccc1)[C@H]1O[C@@H](N2C=CC(N)NC2=O)[C@](C)(OC(=O)c2ccccc2)[C@@H]1OC(=O)c1ccccc1` (stereo partly drawn) gave an EC50 of under 30 µM.
`C[C@H](O)[C@H]1O[C@@H](n2ccc(N)nc2=O)C(F)(F)[C@@H]1O` gave an EC50 of under 5 µM.
Compound `C[C@H](O)[C@H]1O[C@@H](n2ccc(N)nc2=O)[C@H](F)[C@@H]1O` has an EC50 of under 30 µM.
For `CC(=O)Nc1ccn([C@@H]2O[C@H]([C@H](C)OC(C)=O)[C@@H](OC(C)=O)C2(F)F)c(=O)n1`, the EC50 was under 5 µM.
Work on `CCC(=O)O[C@@H](C)[C@H]1O[C@@H](n2ccc(N)nc2=O)C(F)(F)[C@@H]1O` yielded an EC50 of under 5 µM.
Compound `CCC(=O)O[C@@H](C)[C@H]1O[C@@H](n2ccc(N)nc2=O)C(F)(F)[C@@H]1OC(=O)CC` has an EC50 of under 5 µM.
`CC(=O)O[C@@H](C)[C@H]1O[C@@H](n2ccc(N)nc2=O)C(F)(F)[C@@H]1O` showed an EC50 of under 5 µM.
For `CC(=O)O[C@@H](C)[C@H]1O[C@@H](n2ccc(N)nc2=O)C(F)(F)[C@@H]1OC(C)=O`, the EC50 was under 5 µM.
Work on `COC(=O)[C@@H](C)N[P@](=O)(Oc1ccccc1)O[C@H](C)[C@H]1O[C@@H](n2cnc3c(N)ncnc32)[C@H](O)[C@@H]1O` yielded an EC50 of under 5 µM.
With `C[C@@H](O)[C@H]1O[C@@H](n2ccc(N)nc2=O)[C@@H](O)[C@@H]1O` the EC50 was under 5 µM.

Same assay, conditions: Hepatitis C virus; AVA5 cells, HCV genotype 1b subgenomic replicon; compounds added daily for three days; HCV RNA assessed 72 hours after treatment; read-out: EC50
`C[C@H](O)C1O[C@@H](n2cnc3c(N)ncnc32)[C@](C)(O)[C@@H]1O` (stereo in doubt) [Compound 9, 2′,5′-C-dimethyladenosine] showed an EC50 of 1 to 10 µM.
For `CO[C@@H]1[C@H](O)[C@@H](CO)O[C@H]1n1ccc(N)nc1=O` [Compound 8a, 2′-O-methylcytidine, reference compound], the EC50 was 1 to 10 µM.
